Experimental data reported in paper PMC9611598, “Cyclodextrin Derivatives as Promising Solubilizers to Enhance the Biological Activity of Rosmarinic Acid” (Pharmaceutics, 2022).
Values after ≈ are worked out from the molar mass of the structure shown.

How the values were obtained:
tyrosinase = target: T1, tyrosinase; assay: L-DOPA oxidation, […] nm; format: biochemical; conditions: 2.0 mM L-DOPA stock, phosphate buffer pH 6.8, room temperature; RA in 50% DMSO, 0.05-2.5 mg/mL test solutions, 25 µL per well; value may refer to prepared solution, not final well concentration
T1 construct: gene PPO3; mushroom tyrosinase is a guess from usual assay practice

[1] = target: AChE (acetylcholinesterase); assay: Ellman assay, […] nm; format: biochemical; conditions: acetylthiocholine iodide, DTNB, Tris-HCl pH 8.0, room temperature; RA in DMSO, 2.5-25 mg/mL test solutions, 20 µL per well; value may refer to prepared solution, not final well concentration

O=C(/C=C/c1ccc(O)c(O)c1)O[C@H](Cc1ccc(O)c(O)c1)C(=O)O [RA, rosmarinic acid]
IC50 (tyrosinase): 1591 ± 77 µg/mL (≈ 4.42 mM) | IC50 [1]: 8983 ± 162 µg/mL (≈ 24.9 mM)
